{"source": "PubChem BioAssay (NCI)", "assay_in_all_cases": "inhibition of tumour cell growth, NCI panel, 48 h", "key": {"[1]": {"test_system": "786-0 renal"}, "[2]": {"test_system": "A498 renal"}, "[3]": {"test_system": "A549 NSCLC"}, "[4]": {"test_system": "ACHN renal"}, "[5]": {"test_system": "BT-549 breast"}, "[6]": {"test_system": "CAKI-1 renal"}, "[7]": {"test_system": "COLO 205 colon"}, "[8]": {"test_system": "DU-145 prostate"}, "[9]": {"test_system": "EKVX NSCLC"}, "[10]": {"test_system": "HCC-2998 colon"}, "[11]": {"test_system": "HCT-116 colon"}, "[12]": {"test_system": "HCT-15 colon"}, "[13]": {"test_system": "HL-60(TB) leukemia"}, "[14]": {"test_system": "HOP-62 NSCLC"}, "[15]": {"test_system": "HOP-92 NSCLC"}, "[16]": {"test_system": "HT29 colon"}, "[17]": {"test_system": "IGROV1 ovarian"}, "[18]": {"test_system": "K-562 leukemia"}, "[19]": {"test_system": "KM12 colon"}, "[20]": {"test_system": "LOX IMVI melanoma"}, "[21]": {"test_system": "M14 melanoma"}, "[22]": {"test_system": "MCF7 breast"}, "[23]": {"test_system": "MDA-MB-231 breast"}, "[24]": {"test_system": "MDA-MB-435"}, "[25]": {"test_system": "MOLT-4 leukemia"}, "[26]": {"test_system": "NCI-H226 lung"}, "[27]": {"test_system": "NCI-H23 lung"}, "[28]": {"test_system": "NCI-H460 lung"}, "[29]": {"test_system": "NCI-H522 lung"}, "[30]": {"test_system": "NCI/ADR-RES ovarian"}, "[31]": {"test_system": "OVCAR-3 ovarian"}, "[32]": {"test_system": "OVCAR-4 ovarian"}, "[33]": {"test_system": "OVCAR-5 ovarian"}, "[34]": {"test_system": "OVCAR-8 ovarian"}, "[35]": {"test_system": "PC-3 prostate"}, "[36]": {"test_system": "RPMI-8226 leukemia"}, "[37]": {"test_system": "SF-268 CNS"}, "[38]": {"test_system": "SF-295 CNS"}, "[39]": {"test_system": "SF-539 CNS"}, "[40]": {"test_system": "SK-MEL-2 melanoma"}, "[41]": {"test_system": "SK-MEL-28 melanoma"}, "[42]": {"test_system": "SK-MEL-5 melanoma"}, "[43]": {"test_system": "SK-OV-3 ovarian"}, "[44]": {"test_system": "SN12C renal"}, "[45]": {"test_system": "SNB-19 CNS"}, "[46]": {"test_system": "SNB-75 CNS"}, "[47]": {"test_system": "SR leukemia"}, "[48]": {"test_system": "SW-620 colon"}, "[49]": {"test_system": "T-47D breast"}, "[50]": {"test_system": "TK-10 renal"}, "[51]": {"test_system": "U251 CNS"}, "[52]": {"test_system": "UACC-257 melanoma"}, "[53]": {"test_system": "UACC-62 melanoma"}, "[54]": {"test_system": "UO-31 renal"}}, "note": "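Method: 48-hour compound exposure of cells in 96-well plates, five concentrations, linear interpolation of endpoints. GI50: concentration for 50% inhibition of growth. TGI: concentration producing complete growth inhibition.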", "data": [{"smiles": "CS(=O)(=O)O[C@H]1C(=O)N(c2cc3c4ccccc4ccc3c3ccccc23)[C@@H]1c1ccccc1", "values": [{"measurement": "GI50", "setting": "[1]", "value": 287, "unit": "nM"}, {"measurement": "GI50", "setting": "[2]", "value": 545, "unit": "nM"}, {"measurement": "TGI", "setting": "[2]", "value": "> 100000", "unit": "nM"}, {"measurement": "GI50", "setting": "[3]", "value": 2180, "unit": "nM"}, {"measurement": "TGI", "setting": "[3]", "value": "> 100000", "unit": "nM"}, {"measurement": "GI50", "setting": "[4]", "value": 332, "unit": "nM"}, {"measurement": "TGI", "setting": "[4]", "value": "> 100000", "unit": "nM"}, {"measurement": "GI50", "setting": "[5]", "value": 170, "unit": "nM"}, {"measurement": "TGI", "setting": "[5]", "value": "> 100000", "unit": "nM"}, {"measurement": "GI50", "setting": "[6]", "value": 74.7, "unit": "nM"}, {"measurement": "TGI", "setting": "[6]", "value": 830, "unit": "nM"}, {"measurement": "GI50", "setting": "[7]", "value": 693, "unit": "nM"}, {"measurement": "TGI", "setting": "[7]", "value": "> 100000", "unit": "nM"}, {"measurement": "GI50", "setting": "[8]", "value": 819, "unit": "nM"}, {"measurement": "TGI", "setting": "[8]", "value": "> 100000", "unit": "nM"}, {"measurement": "GI50", "setting": "[9]", "value": 342, "unit": "nM"}, {"measurement": "TGI", "setting": "[9]", "value": "> 100000", "unit": "nM"}, {"measurement": "GI50", "setting": "[10]", "value": 439, "unit": "nM"}, {"measurement": "TGI", "setting": "[10]", "value": 5640, "unit": "nM"}, {"measurement": "GI50", "setting": "[11]", "value": 313, "unit": "nM"}, {"measurement": "TGI", "setting": "[11]", "value": "> 100000", "unit": "nM"}, {"measurement": "GI50", "setting": "[12]", "value": 408, "unit": "nM"}, {"measurement": "TGI", "setting": "[12]", "value": "> 100000", "unit": "nM"}, {"measurement": "GI50", "setting": "[13]", "value": 532, "unit": "nM"}, {"measurement": "TGI", "setting": "[13]", "value": "> 100000", "unit": "nM"}, {"measurement": "GI50", "setting": "[14]", "value": 388, "unit": "nM"}, {"measurement": "TGI", "setting": "[14]", "value": "> 100000", "unit": "nM"}, {"measurement": "TGI", "setting": "[15]", "value": "> 100000", "unit": "nM"}, {"measurement": "GI50", "setting": "[16]", "value": 474, "unit": "nM"}, {"measurement": "TGI", "setting": "[16]", "value": "> 100000", "unit": "nM"}, {"measurement": "GI50", "setting": "[17]", "value": "> 100000", "unit": "nM"}, {"measurement": "TGI", "setting": "[17]", "value": "> 100000", "unit": "nM"}, {"measurement": "GI50", "setting": "[18]", "value": 731, "unit": "nM"}, {"measurement": "TGI", "setting": "[18]", "value": "> 100000", "unit": "nM"}, {"measurement": "GI50", "setting": "[19]", "value": 216, "unit": "nM"}, {"measurement": "TGI", "setting": "[19]", "value": "> 100000", "unit": "nM"}, {"measurement": "GI50", "setting": "[20]", "value": 526, "unit": "nM"}, {"measurement": "TGI", "setting": "[20]", "value": "> 100000", "unit": "nM"}, {"measurement": "GI50", "setting": "[21]", "value": 809, "unit": "nM"}, {"measurement": "TGI", "setting": "[21]", "value": "> 100000", "unit": "nM"}, {"measurement": "GI50", "setting": "[22]", "value": 4330, "unit": "nM"}, {"measurement": "TGI", "setting": "[22]", "value": "> 100000", "unit": "nM"}, {"measurement": "GI50", "setting": "[23]", "value": 836, "unit": "nM"}, {"measurement": "TGI", "setting": "[23]", "value": "> 100000", "unit": "nM"}, {"measurement": "GI50", "setting": "[24]", "value": 23.2, "unit": "nM"}, {"measurement": "TGI", "setting": "[24]", "value": 92.3, "unit": "nM"}, {"measurement": "GI50", "setting": "[25]", "value": "> 100000", "unit": "nM"}, {"measurement": "TGI", "setting": "[25]", "value": "> 100000", "unit": "nM"}, {"measurement": "GI50", "setting": "[26]", "value": "> 100000", "unit": "nM"}, {"measurement": "TGI", "setting": "[26]", "value": "> 100000", "unit": "nM"}, {"measurement": "GI50", "setting": "[27]", "value": 753, "unit": "nM"}, {"measurement": "TGI", "setting": "[27]", "value": "> 100000", "unit": "nM"}, {"measurement": "GI50", "setting": "[28]", "value": 1590, "unit": "nM"}, {"measurement": "TGI", "setting": "[28]", "value": "> 100000", "unit": "nM"}, {"measurement": "GI50", "setting": "[29]", "value": 1110, "unit": "nM"}, {"measurement": "TGI", "setting": "[29]", "value": 5650, "unit": "nM"}, {"measurement": "GI50", "setting": "[30]", "value": 206, "unit": "nM"}, {"measurement": "TGI", "setting": "[30]", "value": 940, "unit": "nM"}, {"measurement": "GI50", "setting": "[31]", "value": 61.7, "unit": "nM"}, {"measurement": "TGI", "setting": "[31]", "value": 278, "unit": "nM"}, {"measurement": "GI50", "setting": "[32]", "value": "> 100000", "unit": "nM"}, {"measurement": "TGI", "setting": "[32]", "value": "> 100000", "unit": "nM"}, {"measurement": "GI50", "setting": "[33]", "value": 574, "unit": "nM"}, {"measurement": "TGI", "setting": "[34]", "value": "> 100000", "unit": "nM"}, {"measurement": "GI50", "setting": "[35]", "value": 561, "unit": "nM"}, {"measurement": "TGI", "setting": "[35]", "value": "> 100000", "unit": "nM"}, {"measurement": "GI50", "setting": "[36]", "value": 844, "unit": "nM"}, {"measurement": "TGI", "setting": "[36]", "value": "> 23500", "unit": "nM"}, {"measurement": "GI50", "setting": "[37]", "value": 588, "unit": "nM"}, {"measurement": "TGI", "setting": "[37]", "value": "> 100000", "unit": "nM"}, {"measurement": "GI50", "setting": "[38]", "value": 99.5, "unit": "nM"}, {"measurement": "TGI", "setting": "[38]", "value": 400, "unit": "nM"}, {"measurement": "GI50", "setting": "[39]", "value": 710, "unit": "nM"}, {"measurement": "TGI", "setting": "[39]", "value": 1760, "unit": "nM"}, {"measurement": "TGI", "setting": "[40]", "value": "> 100000", "unit": "nM"}, {"measurement": "GI50", "setting": "[41]", "value": "> 100000", "unit": "nM"}, {"measurement": "TGI", "setting": "[41]", "value": "> 100000", "unit": "nM"}, {"measurement": "GI50", "setting": "[42]", "value": 766, "unit": "nM"}, {"measurement": "TGI", "setting": "[42]", "value": "> 33500", "unit": "nM"}, {"measurement": "GI50", "setting": "[43]", "value": 2310, "unit": "nM"}, {"measurement": "TGI", "setting": "[43]", "value": "> 100000", "unit": "nM"}, {"measurement": "GI50", "setting": "[44]", "value": 567, "unit": "nM"}, {"measurement": "TGI", "setting": "[44]", "value": "> 100000", "unit": "nM"}, {"measurement": "TGI", "setting": "[45]", "value": "> 100000", "unit": "nM"}, {"measurement": "GI50", "setting": "[46]", "value": 656, "unit": "nM"}, {"measurement": "TGI", "setting": "[46]", "value": "> 100000", "unit": "nM"}, {"measurement": "GI50", "setting": "[47]", "value": 355, "unit": "nM"}, {"measurement": "TGI", "setting": "[47]", "value": "> 100000", "unit": "nM"}, {"measurement": "GI50", "setting": "[48]", "value": 874, "unit": "nM"}, {"measurement": "TGI", "setting": "[48]", "value": "> 100000", "unit": "nM"}, {"measurement": "GI50", "setting": "[49]", "value": "> 100000", "unit": "nM"}, {"measurement": "TGI", "setting": "[49]", "value": "> 100000", "unit": "nM"}, {"measurement": "GI50", "setting": "[50]", "value": 616, "unit": "nM"}, {"measurement": "TGI", "setting": "[50]", "value": "> 86900", "unit": "nM"}, {"measurement": "GI50", "setting": "[51]", "value": 457, "unit": "nM"}, {"measurement": "TGI", "setting": "[51]", "value": "> 100000", "unit": "nM"}, {"measurement": "GI50", "setting": "[52]", "value": "> 38100", "unit": "nM"}, {"measurement": "TGI", "setting": "[52]", "value": "> 100000", "unit": "nM"}, {"measurement": "GI50", "setting": "[53]", "value": 240, "unit": "nM"}, {"measurement": "TGI", "setting": "[53]", "value": "> 100000", "unit": "nM"}, {"measurement": "GI50", "setting": "[54]", "value": 3440, "unit": "nM"}, {"measurement": "TGI", "setting": "[54]", "value": "> 100000", "unit": "nM"}]}]}
